Broadly, the IC50 is the midpoint of a concentration-inhibition curve. Read a high IC50 as weaker potency in that assay.

The values below come from patent US9671415B2, “Immunoassay for pyrrolidinophenones” (RANDOX LABORATORIES LIMITED, priority 2014, dated 2017).

Structures are written as SMILES. Values after ≈ are worked out from the molar mass of the structure shown. Values joined by “and” are separate entries in the source; they are usually repeats but may differ in a detail not shown here. Equal values may be shown once. Where a name gives a salt, the structure may show the parent alone.

The test system of one experiment is Antibody-1B. Put plainly: Competitive ELISA for pyrrolidinophenones, Antibody-1B with Tracer-1 (Example 10). The following applies: Antibody-1B coated at 2.5 μg/ml, Tracer-1 at 1/128k; for IC50 / % Cross-Reactivity: Table 2; for % Cross-Reactivity: relative to α-PVP = 100. The experiment is classed as binding, sheep. As for the experimental part:
The purified polyclonal antibody from Example 9 (Antibody-1B) was immobilised on a 96 well ELISA plate at 2.5 μg/ml in 10 mM TRIS buffer, pH 8.5 overnight at 4° C. The assay is based on competition for binding sites of a polyclonal antibody between HRP tracer (Tracer-1) and α-PVP or potential cross-reactants. The plate was washed (×3) with TBST (Tris-Buffered Saline/Tween solution) and the calibrator (α-PVP) or potential cross reactants added (50 μl per well), followed by HRP tracer (Tracer-1) (75 μl/well) to the appropriate wells. The plates were then incubated for 60 minutes at 25° C. They were then subjected to 2 quick wash cycles using TBST, followed by 4×2 minute wash cycles. 125 μl of signal (TMB) was then added to each well for 20 mins at room temperature in the dark. The reaction was stopped by the addition of 125 μl of 0.2 M sulphuric acid per well and the plates read immediately at 450 nm. Calibration curves were generated using α-PVP and these were used to determine the sensitivity and specificity of the immunoassay for potential cross-reactants. The data was inputted to a computer program called KC Junior (Biotek). It gives a 4 parameter fit curve and allows the calculation of concentrations between the standard runs. This program is used to calculate the IC50 values by dividing the 0 ng/ml optical density (OD) value by 2 and obtaining the concentration value from the curve for this OD. The results of this study are presented in Tables 1 and 2, cross-reactivity being calculated according to the following formula: % CR=[…]/IC50 CR×100 wherein % CR is the percentage cross-reactivity, IC50 α-PVP is the concentration of α-PVP which causes 50% displacement of signal and IC50 CR is the concentration of potential cross-reactant that causes 50% displacement of signal.
Antibody-1B (Example 9) used to generate the data in the tables below was raised from Immunogen-1B (Example 7) and the HRP tracer (Tracer-1) was prepared as in Example 8. All of the compounds in Table 2 are commercially available from suppliers such as Cayman Chemical (Ann Arbor, Mich., USA).
On the technique in general: ELISA stands for enzyme-linked immunosorbent assay.

The test system of another experiment is α-PVP antibody. Kind of experiment: α-PVP/MDPV ELISA kit validation assay (Example 11). Format: binding. The following applies: for % Cross-Reactivity: α-PVP/MDPV ELISA kit specificity, relative to α-PVP = 100, Table 10; for % CR: calculated with reference to the standard of that run; for Reactant IC50: standard concentration which produced 50% B/B0 in that run. As to the method:
A microtitre plate was precoated with α-PVP antibody. α-PVP (antigen), if present in the sample competes with the horseradish peroxidase labelled α-PVP (enzyme labelled antigen) for a limited number of antibody sites on the microtitre plate. After incubation at room temperature to allow a competition reaction to take place, the microtitre plate was washed to remove excess reagents. The enzyme substrate was added. After an incubation period to allow maximum colour development, the colour reaction was stopped by the addition of acid. This produces a colour change from blue to yellow, and the absorbances are read at 450 nm. A standard curve was then constructed to determine the α-PVP concentration in the sample.
2. Urine samples were diluted 1:50 with diluent (I.e. 10 μl sample+490 μl diluent).
• 1. Whole blood samples were diluted 1:50 with diluent (i.e. 10 μl sample+490 μL diluent). • 2. The sample was mixed gently by pipetting without the formation of foam. Procedure
The assay was performed in duplicate. The layout of Table 4 was used where each box represents 2 wells:
a) Table 5 details what was pipetted into the appropriate wells of the microtitre plate:
b) The microtitre plate was gently tapped from side to side for a few seconds. c) The microtitre plate was covered with a plate sealer before incubating for 30 minutes at room temperature (+15° C. to +25° C.) in the dark. d) The plate was inverted and the liquid tapped out liquid. e) The plate was washed 6 times with diluted wash buffer (ensuring all wells were filled), over a 10-15 minute period. After the final wash the liquid was discarded liquid and the plate was tapped onto lint free tissue paper until completely dry. f) Immediately after washing, one 125 μl shot of substrate was pipetted into each well using a multichannel pipette. The microtitre plate was gently tapped from side to side and incubated for 20±2 minutes at room temperature (+15 to +25° C.) in the dark. g) The colour reaction was stopped by the addition of 100 μl of stop solution per well. A colour change from blue to yellow resulted. h) The optical density was measured at 450 nm within 10 minutes of stopping the colour reaction. The use of a 630 nm filter was used as the reference wavelength. […] Assay Cut-Off
Equally, pyrrolidinopentiothiophenone and mdpbp were assessed in the same run; and mdppp and α-pyrrolidinopropiophenone were assessed in the same run. […] The Reactant IC50s (i.e. ^2 in the table above) are the standard concentrations which produced 50% B/B0 in that run. The % CR (last column in the table above) is calculated with reference to the standard used in that particular run.

The test system of a further experiment is Antibodies in EP2626358. Conditions: immunoassay of EP2626358; cited from earlier work.
[1] abbreviates: unit not given, Table 11, in ng/mL.

For `Cc1ccc(C(=O)C(C)N2CCCC2)cc1` (racemic) [4′-Methyl-α-pyrrolidinopropiophenone], in the experiment with Antibody-1B, the IC50 was more than 10 ng/mL and the “% Cross-Reactivity” value is given as less than 3.150%. Also, the “% Cross-Reactivity” value in the experiment with α-PVP antibody is recorded as 1.8%.
`CC(C(=O)c1ccc2c(c1)OCO2)N1CCCC1` (stereo not drawn) [3′,4′-Methylenedioxy-α-pyrrolidinopropiophenone]: the “% CR” value with α-PVP antibody (Table 11) is given as 0.8%. The “Reactant IC50” value in the experiment with α-PVP antibody (setting [1]) was found to be 17.727. Besides, the “% Cross-Reactivity” value with α-PVP antibody came out at 0.8%.
`CCCCCCC(C(=O)c1ccc(F)cc1)N1CCCC1.Cl` (stereo not drawn) [4-Fluoro-PV9 HCl, 1-(4-fluorophenyl)-2-(pyrrolidin-1-yl)octan-1-one, monohydrochloride]: in the experiment on α-PVP antibody, the “% Cross-Reactivity” value is recorded as 3.2%.
For `CNC(C)C(=O)c1ccc(F)cc1` (stereo not drawn) [4-Fluoromethcathinone, 4-fluoro-N-methylcathinone], in the experiment with α-PVP antibody, the “% Cross-Reactivity” value is less than 1%.
On the same count and under the same terms, under `CCCCCC(C(=O)c1ccc(OC)cc1)N1CCCC1.Cl` (stereo not drawn) [4-Methoxy-PV8 HCl, 1-(4-methoxyphenyl)-2-(pyrrolidin-1-yl)heptan-1-one, hydrochloride] stands 11.7%.
On to `CCCC(C(=O)c1ccc(OC)cc1)N1CCCC1` (stereo not drawn) [4-Methoxy-α-pyrrolidinopentiophenone, 4′-Methoxy-α-pyrrolidinopentiophenone], for which, in the experiment with Antibody-1B, the IC50 was 0.233 ng/mL (≈ 0.891 nM) and the “% Cross-Reactivity” value was determined as 135.193%.
In the case of `CCCCC(C(=O)c1ccc(C)cc1)N1CCCC1` (stereo not drawn) [4′-Methyl-α-pyrrilidinohexylphenone], in the experiment on α-PVP antibody, the “% Cross-Reactivity” value is 38.1%.
For `CCC(C(=O)c1ccc(C)cc1)N1CCCC1` (stereo not drawn) [4′-Methyl-α-pyrrolidinobutiophenone], the “% Cross-Reactivity” value in the experiment with α-PVP antibody was 23.2%.
As to `CCC(NC)C(=O)c1ccc2c(c1)OCO2` (stereo not drawn) [Butylone, 1-(1,3-benzodioxol-5-yl)-2-(methylamino)butan-1-one], in the experiment with α-PVP antibody, the “% Cross-Reactivity” value is reported as less than 1%.
For `CCC(C(=O)c1ccc2c(c1)OCO2)N1CCCC1` (stereo not drawn) [MDPBP, 3′,4′-Methylenedioxy-α-pyrrolidinobutiophenone], in the experiment on Antibody-1B, the IC50 came to 1.532 ng/mL (≈ 5.86 nM) and the “% Cross-Reactivity” value is 20.561%. In addition, in the experiment with α-PVP antibody (Table 11), the “% CR” value was 17.2%. Moreover, the “Reactant IC50” value in the experiment with α-PVP antibody (setting [1]) is given as 1.044. Further, the “% Cross-Reactivity” value in the experiment with α-PVP antibody worked out at 17.2%.
Regarding `CCCC(C(=O)c1ccc2c(c1)OCO2)N1CCCC1` (stereo not drawn) [MDPV, 3′,4′-Methylenedioxy-α-pyrrolidinopentiophenone], in the experiment on Antibody-1B, the IC50 was found to be 0.176 ng/mL (≈ 0.639 nM) and the “% Cross-Reactivity” value is listed as 178.977%. In addition, the “% CR” value with α-PVP antibody (Table 11) is 93.3%. In the experiment with α-PVP antibody (setting [1]), the “Reactant IC50” value is given as 0.164. The “% Cross-Reactivity” value in the experiment on α-PVP antibody is given as 93.3%.
Regarding `CNC(C)C(=O)c1ccc(C)cc1` (stereo not drawn) [Mephedrone], in the experiment on α-PVP antibody, the “% Cross-Reactivity” value is listed as less than 1%.
Take `CNC(C)C(=O)c1ccc(OC)cc1` (stereo not drawn) [Methedrone]: the “% Cross-Reactivity” value in the experiment with α-PVP antibody is recorded as less than 1%.
For the molecule `CNC(C)C(=O)c1ccc2c(c1)OCO2` (stereo not drawn) [Methylone], the “% Cross-Reactivity” value in the experiment with α-PVP antibody is on record as less than 1%.
With `CCCC(C(=O)c1ccc2ccccc2c1)N1CCCC1` (stereo not drawn) [Naphyrone, 1-(naphthalen-2-yl)-2-(pyrrolidin-1-yl)pentan-1-one], in the experiment with Antibody-1B, the IC50 was found to be 0.221 ng/mL (≈ 0.785 nM) and the “% Cross-Reactivity” value is given as 142.534%. Also, in the experiment with α-PVP antibody (Table 11), the “% CR” value was 70.2%. For the same molecule, in the experiment on α-PVP antibody (setting [1]), the “Reactant IC50” value turned out to be 0.218. The “% Cross-Reactivity” value with α-PVP antibody stood at 70.2%.
As to `CCCC(NC)C(=O)c1ccc2c(c1)OCO2` (stereo not drawn) [Pentylone, 1-(1,3-benzodioxol-5-yl)-2-(methylamino)pentan-1-one], the “% Cross-Reactivity” value with α-PVP antibody is less than 1%.
Consider `CCCC(C(=O)c1ccc(C)cc1)N1CCCC1` (stereo not drawn) [Pyrovalerone, 4-Methyl-α-pyrrolidinopentiophenone], for which, in the experiment on Antibody-1B, the IC50 stood at 0.168 ng/mL (≈ 0.685 nM) and the “% Cross-Reactivity” value was found to be 187.500%. Also, the “% CR” value with α-PVP antibody (Table 11) is 125.4%. Also, the “Reactant IC50” value with α-PVP antibody (setting [1]) came out at 0.122. Moreover, in the experiment on α-PVP antibody, the “% Cross-Reactivity” value is 125.4%.
For the molecule `CCCC(C(=O)c1ccccc1)N1CCCC1` (stereo not drawn) [α-PVP, α-Pyrrolidinovalerophenone], in the experiment with Antibody-1B, the IC50 amounted to 0.315 ng/mL (≈ 1.36 nM) and the “% Cross-Reactivity” value was 100%. Besides, the “IC50 (standard concentration which produces 50% B/B0)” value in the experiment on Antibody-1B (standard α-PVP, Table 1) is 0.315 ng/mL (≈ 1.36 nM). For the same molecule, the “STD IC50” value in the experiment with α-PVP antibody (IC50 of the standard (alpha-pvp) in the same run as the reactant of the line, unit not given, Table 11, in ng/mL) is 0.18 and 0.153 and 0.149. Also, in the experiment on α-PVP antibody (Table 11), the “% CR” value was 100%. In the experiment on α-PVP antibody (setting [1]), the “Reactant IC50” value is 0.153. In the experiment on α-PVP antibody, the “% Cross-Reactivity” value turned out to be 100%. Besides, in the experiment with Antibodies in EP2626358, the cross-reactivity entry is on record as “very low”.
Consider `CCCC(C(=O)c1cccs1)N1CCCC1` (stereo not drawn) [α-Pyrrolidinopentiothiophenone HCl, α-Pyrrolidinopentiothiophenone], for which, in the experiment on α-PVP antibody (Table 11), the “% CR” value is recorded as 73.2%. Besides, the “Reactant IC50” value in the experiment on α-PVP antibody (setting [1]) was determined as 0.246. Moreover, in the experiment on α-PVP antibody, the “% Cross-Reactivity” value turned out to be 73.2%.
Turning to `CC(C(=O)c1ccccc1)N1CCCC1` (stereo not drawn) [α-Pyrrolidinopropiophenone], in the experiment with Antibody-1B, the IC50 was more than 10 ng/mL and the “% Cross-Reactivity” value is listed as less than 3.150%. Besides, the “% CR” value in the experiment with α-PVP antibody (Table 11) is on record as 0.8%. Further, in the experiment with α-PVP antibody (setting [1]), the “Reactant IC50” value was 18.744. Further, the “% Cross-Reactivity” value with α-PVP antibody is 0.8%.
